Test results as given in US6737383B1, “Herbicidal oxadiazolidines” (priority 1999, dated 2004).

What was measured:
rape = test: Test B pre/postemergence rape; format: in vivo, Brassica napus
How it was run: (§1)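 Test chemicals in a non-phytotoxic solvent mixture with surfactant were sprayed preemergence onto planted seeds and postemergence onto plants 2 to 18 cm tall (1- to 4-leaf stage). After twelve to sixteen days in a greenhouse, injury was visually rated against untreated controls from 0 (no effect) to 10 (complete control).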

giant foxtail = test: Test B pre/postemergence giant foxtail; format: in vivo, Setaria faberii
How it was run: as §1

duck salad = test: Test B flood test duck salad; format: in vivo, Heteranthera limosa
How it was run: (§2)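 Flood test on plants grown to the 2-leaf stage; treated plants kept in greenhouse twelve to sixteen days, then visually rated against controls on a 0 (no effect) to 10 (complete control) scale.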

blackgrass = test: Test B pre/postemergence blackgrass; format: in vivo, Alopecurus myosuroides
How it was run: as §1

corn = test: Test B pre/postemergence corn; format: in vivo, Zea mays
How it was run: as §1

velvetleaf = test: Test B pre/postemergence velvetleaf; format: in vivo, Abutilon theophrasti
How it was run: as §1

rice = test: Test B flood test rice; format: in vivo, Oryza sativa
How it was run: as §2

sugar beet = test: Test B pre/postemergence sugar beet; format: in vivo, Beta vulgaris
How it was run: as §1

morningglory = test: Test B pre/postemergence morningglory; format: in vivo, Ipomoea hederacea
How it was run: as §1

cocklebur = test: Test B pre/postemergence cocklebur; format: in vivo, Xanthium strumarium
How it was run: as §1

bamyardgrass = test: Test B flood test barnyardgrass; format: in vivo, Echinochloa crus-galli
How it was run: as §2

purple nutsedge = test: Test B pre/postemergence purple nutsedge; format: in vivo, Cyperus rotundus
How it was run: as §1

bedstraw = test: Test B pre/postemergence bedstraw; format: in vivo, Galium aparine
How it was run: as §1

surinam grass = test: Test B pre/postemergence surinam grass; format: in vivo, Brachiaria decumbens
How it was run: as §1

pigweed = test: Test B pre/postemergence pigweed; format: in vivo, Amaranthus retroflexus
How it was run: as §1

[1] = Preemergence, Rate 62 g/ha, scale of 0 to 10 where 0 is no effect and 10 is complete control
[2] = Preemergence, Rate 125 g/ha, 0 is no effect, 10 is complete control
[3] = Preemergence, Rate 250 g/ha, scale 0 to 10, 0 is no effect, 10 is complete control
[4] = Preemergence, Rate 500 g/ha, scale 0 (no effect) to 10 (complete control)
[5] = Preemergence, Rate 500 g/ha, scale of 0 to 10 where 0 is no effect and 10 is complete control
[6] = Rate 62 g/ha, Postemergence, scale of 0 to 10 where 0 is no effect and 10 is complete control
[7] = Rate 125 g/ha, Postemergence, scale 0 to 10
[8] = Rate 500 g/ha, Postemergence, scale 0 to 10
[9] = Rate 62 g/ha, headed Pre-emergence (flood test species), scale 0 to 10 (0 no effect, 10 complete control)
[10] = Rate 125 g/ha, Pre-emergence, flood test species, scale 0 to 10 where 0 is no effect and 10 is complete control
[11] = Rate 250 g/ha, Pre-emergence, flood-test species, scale 0 to 10, 0 is no effect, 10 is complete control
[12] = Rate 500 g/ha, headed Pre-emergence (flood test species), scale 0 to 10 (0 no effect, 10 complete control)

SMILES: CCc1cccc(C)c1-n1c(=O)on(C(=O)N(c2ccc(F)cc2)C(C)C)c1=O [Compound 201]
- Rape plant response rating (rape; [1]): 0
- Rape plant response rating (0 to 10 scale) (rape; [2]): 0
- Rape plant response rating (rape; [3]): 0
- Rape plant response rating (rape; [4]): 0
- Plant response rating, Rape (rape; [5]): 0
- Rape plant response rating (rape; [6]): 0
- Rape plant response rating (rape; [7]): 0
- Plant response rating (0 to 10; 0 is no effect, 10 is complete control), Rape (rape; Rate 250 g/ha, Postemergence): 0
- Rape plant response rating (rape; [8]): 0
- Giant foxtail plant response rating (giant foxtail; [1]): 2
- Giant foxtail plant response rating (0 to 10 scale) (giant foxtail; [2]): 6
- Giant foxtail plant response rating (giant foxtail; [3]): 8
- Giant foxtail plant response rating (giant foxtail; [4]): 10
- Plant response rating, Giant foxtail (giant foxtail; [5]): 10
- Giant foxtail plant response rating (giant foxtail; [6]): 0
- Giant foxtail plant response rating (giant foxtail; [7]): 0
- Plant response rating (0 to 10; 0 is no effect, 10 is complete control), Giant foxtail (giant foxtail; Rate 250 g/ha, Postemergence): 0
- Giant foxtail plant response rating (giant foxtail; [8]): 0
- Ducksalad plant response rating (duck salad; [9]): 0
- Ducksalad plant response rating (duck salad; [10]): 0
- Ducksalad plant response rating (duck salad; [11]): 0
- Plant response rating, Ducksalad (duck salad; [12]): 2
- Blackgrass plant response rating (blackgrass; [1]): 0
- Blackgrass plant response rating (0 to 10 scale) (blackgrass; [2]): 0
- Blackgrass plant response rating (blackgrass; [3]): 4
- Blackgrass plant response rating (blackgrass; [4]): 4
- Plant response rating, Blackgrass (blackgrass; [5]): 4
- Blackgrass plant response rating (blackgrass; [6]): 0
- Blackgrass plant response rating (blackgrass; [7]): 0
- Plant response rating (0 to 10; 0 is no effect, 10 is complete control), Blackgrass (blackgrass; Rate 250 g/ha, Postemergence): 0
- Blackgrass plant response rating (blackgrass; [8]): 4
- Corn plant response rating (corn; [1]): 0
- Corn plant response rating (0 to 10 scale) (corn; [2]): 0
- Corn plant response rating (corn; [3]): 0
- Corn plant response rating (corn; [4]): 0
- Plant response rating, Corn (corn; [5]): 0
- Corn plant response rating (corn; [6]): 0
- Corn plant response rating (corn; [7]): 0
- Plant response rating (0 to 10; 0 is no effect, 10 is complete control), Corn (corn; Rate 250 g/ha, Postemergence): 0
- Corn plant response rating (corn; [8]): 0
- Velvetleaf plant response rating (velvetleaf; [1]): 0
- Velvetleaf plant response rating (velvetleaf; [3]): 0
- Velvetleaf plant response rating (velvetleaf; [4]): 0
- Plant response rating, Velvetleaf (velvetleaf; [5]): 0
- Velvetleaf plant response rating (velvetleaf; [6]): 0
- Velvetleaf plant response rating (velvetleaf; [7]): 0
- Plant response rating (0 to 10; 0 is no effect, 10 is complete control), Velvetleaf (velvetleaf; Rate 250 g/ha, Postemergence): 1
- Rice plant response rating (rice; [9]): 0
- Rice plant response rating (rice; [10]): 0
- Rice plant response rating (rice; [11]): 0
- Plant response rating, Rice (rice; [12]): 0
- Sugarbeets plant response rating (sugar beet; [1]): 0
- Sugarbeets plant response rating (0 to 10 scale) (sugar beet; [2]): 0
- Sugarbeets plant response rating (sugar beet; [3]): 0
- Sugarbeets plant response rating (sugar beet; [4]): 0
- Plant response rating, Sugarbeets (sugar beet; [5]): 0
- Sugarbeets plant response rating (sugar beet; [6]): 0
- Sugarbeets plant response rating (sugar beet; [7]): 0
- Plant response rating (0 to 10; 0 is no effect, 10 is complete control), Sugarbeets (sugar beet; Rate 250 g/ha, Postemergence): 3
- Sugarbeets plant response rating (sugar beet; [8]): 4
- Morningglory plant response rating (morningglory; [1]): 0
- Morningglory plant response rating (0 to 10 scale) (morningglory; [2]): 0
- Morningglory plant response rating (morningglory; [3]): 0
- Morningglory plant response rating (morningglory; [4]): 0
- Plant response rating, Morningglory (morningglory; [5]): 0
- Morningglory plant response rating (morningglory; [6]): 1
- Morningglory plant response rating (morningglory; [7]): 1
- Plant response rating (0 to 10; 0 is no effect, 10 is complete control), Morningglory (morningglory; Rate 250 g/ha, Postemergence): 1
- Morningglory plant response rating (morningglory; [8]): 3
- Cocklebur plant response rating (cocklebur; [1]): 0
- Cocklebur plant response rating (0 to 10 scale) (cocklebur; [2]): 0
- Cocklebur plant response rating (cocklebur; [3]): 0
- Cocklebur plant response rating (cocklebur; [4]): 0
- Plant response rating, Cocklebur (cocklebur; [5]): 0
- Cocklebur plant response rating (cocklebur; [6]): 0
- Cocklebur plant response rating (cocklebur; [7]): 0
- Plant response rating (0 to 10; 0 is no effect, 10 is complete control), Cocklebur (cocklebur; Rate 250 g/ha, Postemergence): 0
- Cocklebur plant response rating (cocklebur; [8]): 0
- Barnyardgrass plant response rating (bamyardgrass; [9]): 0
- Barnyardgrass plant response rating (bamyardgrass; [10]): 0
- Barnyardgrass plant response rating (bamyardgrass; [11]): 0
- Plant response rating, Barnyardgrass (bamyardgrass; [12]): 9
- Nutsedge plant response rating (purple nutsedge; [1]): 0
- Nutsedge plant response rating (0 to 10 scale) (purple nutsedge; [2]): 0
- Nutsedge plant response rating (purple nutsedge; [4]): 0
- Nutsedge plant response rating (purple nutsedge; [6]): 0
- Nutsedge plant response rating (purple nutsedge; [7]): 0
- Plant response rating (0 to 10; 0 is no effect, 10 is complete control), Nutsedge (purple nutsedge; Rate 250 g/ha, Postemergence): 0
- Nutsedge plant response rating (purple nutsedge; [8]): 0
- Bedstraw plant response rating (bedstraw; [1]): 0
- Bedstraw plant response rating (0 to 10 scale) (bedstraw; [2]): 0
- Bedstraw plant response rating (bedstraw; [3]): 0
- Bedstraw plant response rating (bedstraw; [4]): 0
- Plant response rating, Bedstraw (bedstraw; [5]): 0
- Bedstraw plant response rating (bedstraw; [6]): 0
- Bedstraw plant response rating (bedstraw; [7]): 0
- Plant response rating (0 to 10; 0 is no effect, 10 is complete control), Bedstraw (bedstraw; Rate 250 g/ha, Postemergence): 0
- Bedstraw plant response rating (bedstraw; [8]): 0
- B. signalgrass plant response rating (surinam grass; [1]): 0
- B. signalgrass plant response rating (0 to 10 scale) (surinam grass; [2]): 0
- B. signalgrass plant response rating (surinam grass; [3]): 0
- B. signalgrass plant response rating (surinam grass; [4]): 0
- Plant response rating, B. signalgrass (surinam grass; [5]): 4
- B. signalgrass plant response rating (surinam grass; [6]): 0
- B. signalgrass plant response rating (surinam grass; Rate 125 g/ha, Postemergence, scale 0 (no effect) to 10 (complete control)): 0
- Plant response rating, B. signalgrass (surinam grass; Rate 250 g/ha, Postemergence, scale 0 to 10, 0 is no effect, 10 is complete control): 0
- B. signalgrass plant response rating (surinam grass; Rate 500 g/ha, Postemergence, scale 0 to 10, 0 no effect, 10 complete control): 0
- Redroot pigweed plant response rating (pigweed; [1]): 0
- Redroot pigweed plant response rating (0 to 10 scale) (pigweed; [2]): 0
- Redroot pigweed plant response rating (pigweed; [3]): 0
- Redroot pigweed plant response rating (pigweed; [4]): 0
- Plant response rating, Redroot pigweed (pigweed; [5]): 0
- Redroot pigweed plant response rating (pigweed; [6]): 0
- Redroot pigweed plant response rating (pigweed; [7]): 0
- Plant response rating (0 to 10; 0 is no effect, 10 is complete control), Redroot pigweed (pigweed; Rate 250 g/ha, Postemergence): 0
- Redroot pigweed plant response rating (pigweed; [8]): 3
